Reference: paper PMC8802806, “Synthesis and Antitumor Activity of Erlotinib Derivatives Linked With 1,2,3-Triazole” (Frontiers in Pharmacology, 2022)
Read-outs that look alike come from different tables or passages of the source.

Assays:
[1] = tested on: HeLa cells; experiment: Cell antiproliferative activity assay (CCK8); type: cell-based, human; settings: for inhibition at 0.25 µM: 250 nM; for inhibition at 0.5 µM: 500 nM; for inhibition at 1 µM: 1000 nM; for inhibition at 2 µM: 2000 nM; for inhibition at 4 µM: 4000 nM; for inhibition at 8 µM: 8000 nM; for inhibition at 16 µM: 16000 nM
Experimental: Cell antiproliferative activity was evaluated by the Cell Counting Kit-8 (CCK8, DOJINDO, Japan) assay. The cells were seeded at a density of 2,000 cells per well into 96-well microplate in 100 μl of growth medium. Cells were incubated at 37°C and 5% CO2 overnight. The next day, 100 μl per well of diluted inhibitor in growth medium was added with the final concentration from 0.1 nM to 100 μM. The cells were treated with DMSO as control. A series of dilutions are made in 0.1% DMSO in assay medium so that the final concentration of DMSO is 0.1% in all of treatments. Cells were incubated at 37°C and 5% CO2 for 48 h. Then, 10 μl of CCK8 was added to each well. The plates were incubated at 37°C for 2 h; after that, the plates were recorded by measuring absorbance at 450 nm with the reference wavelength of 630 nm using an EnVision Multilabel Reader (PerkinElmer). The IC50 values were calculated using GraphPad Prism 6.0 software and determined by the concentration causing a half-maximal percent activity. All assays were conducted with three parallel samples and three repetitions.

[2] = Homo sapiens, HeLa, 48 h, HeLa cells, CCK8, 48 h, mean ± SD, n = 3, read-out: IC50 (μM) HeLa
[3] = Homo sapiens, HeLa, HELA 2000cells/well, supplement DataSheet2, Repeat1, read-out: IC50 Repeat1
[4] = Homo sapiens, HeLa, HELA 2000cells/well, supplement DataSheet2, Repeat 2, read-out: IC50 Repeat 2
[5] = Homo sapiens, HeLa, HELA 2000cells/well, supplement DataSheet2, mean of two repeats ± SD, read-out: IC50 mean±SD
[6] = Homo sapiens, HELA 2000cells/well, Repeat1, read-out: Inhibition (%) Repeat1
[7] = Homo sapiens, HELA 2000cells/well, Repeat2, read-out: Inhibition (%) Repeat2

Structure (SMILES)	melting point	IC50 [1, 2]	IC50 [1, 3]	IC50 [1, 4]	IC50 [1, 5]	inhibition at 0.25 µM [1, 6]	inhibition at 0.25 µM [1, 7]	inhibition at 0.5 µM [1, 6]	inhibition at 0.5 µM [1, 7]	inhibition at 1 µM [1, 6]	inhibition at 1 µM [1, 7]	inhibition at 2 µM [1, 6]	inhibition at 2 µM [1, 7]	inhibition at 4 µM [1, 6]	inhibition at 4 µM [1, 7]	inhibition at 8 µM [1, 6]	inhibition at 8 µM [1, 7]	inhibition at 16 µM [1, 6]	inhibition at 16 µM [1, 7]	other results
COCCOc1cc2ncnc(Nc3cccc(-c4cn(-c5ccccc5Cl)nn4)c3)c2cc1OCCOC [Compound 4h, [6,7-Bis-(2-methoxy-ethoxy)-quinazolin-4-yl]-{3-[1-(2-chloro-phenyl)-1H-[1,2,3]triazol-4-yl]-phenyl}-amine]	131 to 134 °C	8.85 ± 0.56 µM	8.32 µM	9.44 µM	8.86 ± 0.559 µM	0%	1.75%	7.08%	3.15%	7.26%	6.12%	13.4%	11.2%	31.3%	29.2%	54.3%	51.4%	63.2%	59.4%	–
COCCOc1cc2ncnc(Nc3cccc(-c4cn(-c5ccc(Br)cc5)nn4)c3)c2cc1OCCOC [Compound 4j, [6,7-Bis-(2-methoxy-ethoxy)-quinazolin-4-yl]-{3-[1-(4-bromo-phenyl)-1H-[1,2,3]triazol-4-yl]-phenyl}-amine]	105 to 108 °C	12.2 ± 1 µM	11.3 µM	13.3 µM	12.2 ± 1.01 µM	0%	2.88%	0.0873%	2.97%	0.96%	4.36%	4.01%	4.89%	8.03%	8.64%	26.2%	17.7%	73.6%	63.3%	–
COCCOc1cc2ncnc(Nc3cccc(-c4cn(-c5cccc(OC)c5)nn4)c3)c2cc1OCCOC [Compound 4e, [6,7-Bis-(2-methoxy-ethoxy)-quinazolin-4-yl]-{3-[1-(3-methoxy-phenyl)-1H-[1,2,3]triazol-4-yl]-phenyl}-amine]	–	> 50 µM	–	–	–	0.801%	0%	4.97%	2.08%	7.13%	3.04%	14.1%	5.45%	15%	13.5%	16.5%	15.1%	18.2%	15.9%	–
COCCOc1cc2ncnc(Nc3cccc(-c4cn(Cc5ccccc5Br)nn4)c3)c2cc1OCCOC [Compound 4c, [6,7-Bis-(2-methoxy-ethoxy)-quinazolin-4-yl]-{3-[1-(2-bromo-benzyl)-1H-[1,2,3]triazol-4-yl]-phenyl}-amine]	94 to 97 °C	21.3 ± 7.79 µM	14.8 µM	30.4 µM	–	2.33%	0%	4.15%	1.82%	4.75%	2.33%	15.8%	9.94%	35.6%	21.3%	42.4%	29.7%	45%	34.1%	–
C#Cc1cccc(Nc2ncnc3cc(OCCOC)c(OCCOC)cc23)c1 [Erlotinib, erlotinib]	–	–	–	–	–	–	–	–	–	–	–	–	–	–	–	–	–	–	–	IC50 ([1]; Homo sapiens, HeLa cells, CCK8, 48 h, mean ± SD, n = 3, read-out: IC50 (μM) HeLa): 39.5 ± 3.34 µM
COCCOc1cc2ncnc(Nc3cccc(-c4cn(-c5ccccc5F)nn4)c3)c2cc1OCCOC [Compound 4f, [6,7-Bis-(2-methoxy-ethoxy)-quinazolin-4-yl]-{3-[1-(2-fluoro-phenyl)-1H-[1,2,3]triazol-4-yl]-phenyl}-amine]	83 to 86 °C	30.7 ± 1.83 µM	32.4 µM	28.7 µM	30.7 ± 1.83 µM	2.17%	0%	2.51%	0.418%	3.51%	0.502%	4.77%	2.17%	8.86%	3.18%	29.8%	23.1%	31.1%	30.4%	–
COCCOc1cc2ncnc(Nc3cccc(-c4cn(-c5ccccc5Br)nn4)c3)c2cc1OCCOC [Compound 4i, [6,7-Bis-(2-methoxy-ethoxy)-quinazolin-4-yl]-{3-[1-(2-bromo-phenyl)-1H-[1,2,3]triazol-4-yl]-phenyl}-amine]	93 to 97 °C	4.16 µM	4.41 µM	4.3 µM	4.36 ± 0.054 µM	2.62%	0%	6.42%	5.74%	9.04%	6.59%	15.2%	17.7%	41.6%	42.6%	83.4%	83.9%	88.1%	88.9%	IC50 ([1]; HeLa cells, CCK8, 48 h, mean ± SD, n = 3, read-out: IC50 (μM) HeLa): 4.36 ± 0.15 µM
COCCOc1cc2ncnc(Nc3cccc(-c4cn(-c5ccc(F)cc5)nn4)c3)c2cc1OCCOC [Compound 4g, [6,7-Bis-(2-methoxy-ethoxy)-quinazolin-4-yl]-{3-[1-(4-fluoro-phenyl)-1H-[1,2,3]triazol-4-yl]-phenyl}-amine]	88 to 91 °C	9.05 ± 0.53 µM	8.57 µM	9.64 µM	9.06 ± 0.531 µM	0%	2.88%	0.279%	5.02%	2.88%	5.02%	20.6%	17.7%	37.5%	38.5%	51.1%	50.1%	59.4%	54.7%	–
COCCOc1cc2ncnc(Nc3cccc(-c4cn(Cc5ccccc5I)nn4)c3)c2cc1OCCOC [Compound 4b, [6,7-Bis-(2-methoxy-ethoxy)-quinazolin-4-yl]-{3-[1-(2-iodo-benzyl)-1H-[1,2,3]triazol-4-yl]-phenyl}-amine]	93 to 96 °C	11.5 ± 1.69 µM	9.72 µM	13.1 µM	11.5 ± 1.69 µM	8.56%	0%	12.5%	0%	13.3%	3.42%	17.6%	7.96%	37.8%	28.2%	52%	40.8%	54.8%	51.1%	–
COCCOc1cc2ncnc(Nc3cccc(-c4cn(Cc5ccccc5)nn4)c3)c2cc1OCCOC [Compound 4a, [3-(1-Benzyl-1H-[1,2,3]triazol-4-yl)-phenyl]-[6,7-bis-(2-methoxy-ethoxy)-quinazolin-4-yl]-amine]	89 to 92 °C	> 50 µM	–	–	–	0%	4.4%	8.2%	5.61%	8.54%	6.73%	8.54%	6.73%	12.1%	12.1%	12.5%	13.8%	16.3%	15.5%	–
